Laboratory results reported in ChEMBL document CHEMBL3988442, “University of Dundee, Small-Polar-MMV Screening Library” (2021).
Values joined by “and” are separate entries in the source; they are usually repeats but may differ in a detail not shown here. Equal values may be shown once.

Columns and labels:
[1] = molecular target: Sialic acid-binding Ig-like lectin 9 (Homo sapiens, UniProt Q9Y336); test: Hs-Siglec9 ALPHAscreen SOP 20170721
[2] = system: Mycobacterium tuberculosis; test: Cornell M. t heat shock assay; type: functional, organism-based; settings: for IC50: Mycobacterium tuberculosis
Wolbachia pipientis = test: Anti-Wolbachia Cell-Based Screen; type: functional; settings: for IC50: Wolbachia pipientis
[3] = molecular target: Polyketide synthase Pks13 (Mycobacterium tuberculosis (strain ATCC 25618 / H37Rv), UniProt I6X8D2); test: Mycobacterium tuberculosis Polyketide synthase 13 Thioesterase (PKS13); type: functional
Chain of Polyketide synthase Pks13 (I6X8D2 whole entry): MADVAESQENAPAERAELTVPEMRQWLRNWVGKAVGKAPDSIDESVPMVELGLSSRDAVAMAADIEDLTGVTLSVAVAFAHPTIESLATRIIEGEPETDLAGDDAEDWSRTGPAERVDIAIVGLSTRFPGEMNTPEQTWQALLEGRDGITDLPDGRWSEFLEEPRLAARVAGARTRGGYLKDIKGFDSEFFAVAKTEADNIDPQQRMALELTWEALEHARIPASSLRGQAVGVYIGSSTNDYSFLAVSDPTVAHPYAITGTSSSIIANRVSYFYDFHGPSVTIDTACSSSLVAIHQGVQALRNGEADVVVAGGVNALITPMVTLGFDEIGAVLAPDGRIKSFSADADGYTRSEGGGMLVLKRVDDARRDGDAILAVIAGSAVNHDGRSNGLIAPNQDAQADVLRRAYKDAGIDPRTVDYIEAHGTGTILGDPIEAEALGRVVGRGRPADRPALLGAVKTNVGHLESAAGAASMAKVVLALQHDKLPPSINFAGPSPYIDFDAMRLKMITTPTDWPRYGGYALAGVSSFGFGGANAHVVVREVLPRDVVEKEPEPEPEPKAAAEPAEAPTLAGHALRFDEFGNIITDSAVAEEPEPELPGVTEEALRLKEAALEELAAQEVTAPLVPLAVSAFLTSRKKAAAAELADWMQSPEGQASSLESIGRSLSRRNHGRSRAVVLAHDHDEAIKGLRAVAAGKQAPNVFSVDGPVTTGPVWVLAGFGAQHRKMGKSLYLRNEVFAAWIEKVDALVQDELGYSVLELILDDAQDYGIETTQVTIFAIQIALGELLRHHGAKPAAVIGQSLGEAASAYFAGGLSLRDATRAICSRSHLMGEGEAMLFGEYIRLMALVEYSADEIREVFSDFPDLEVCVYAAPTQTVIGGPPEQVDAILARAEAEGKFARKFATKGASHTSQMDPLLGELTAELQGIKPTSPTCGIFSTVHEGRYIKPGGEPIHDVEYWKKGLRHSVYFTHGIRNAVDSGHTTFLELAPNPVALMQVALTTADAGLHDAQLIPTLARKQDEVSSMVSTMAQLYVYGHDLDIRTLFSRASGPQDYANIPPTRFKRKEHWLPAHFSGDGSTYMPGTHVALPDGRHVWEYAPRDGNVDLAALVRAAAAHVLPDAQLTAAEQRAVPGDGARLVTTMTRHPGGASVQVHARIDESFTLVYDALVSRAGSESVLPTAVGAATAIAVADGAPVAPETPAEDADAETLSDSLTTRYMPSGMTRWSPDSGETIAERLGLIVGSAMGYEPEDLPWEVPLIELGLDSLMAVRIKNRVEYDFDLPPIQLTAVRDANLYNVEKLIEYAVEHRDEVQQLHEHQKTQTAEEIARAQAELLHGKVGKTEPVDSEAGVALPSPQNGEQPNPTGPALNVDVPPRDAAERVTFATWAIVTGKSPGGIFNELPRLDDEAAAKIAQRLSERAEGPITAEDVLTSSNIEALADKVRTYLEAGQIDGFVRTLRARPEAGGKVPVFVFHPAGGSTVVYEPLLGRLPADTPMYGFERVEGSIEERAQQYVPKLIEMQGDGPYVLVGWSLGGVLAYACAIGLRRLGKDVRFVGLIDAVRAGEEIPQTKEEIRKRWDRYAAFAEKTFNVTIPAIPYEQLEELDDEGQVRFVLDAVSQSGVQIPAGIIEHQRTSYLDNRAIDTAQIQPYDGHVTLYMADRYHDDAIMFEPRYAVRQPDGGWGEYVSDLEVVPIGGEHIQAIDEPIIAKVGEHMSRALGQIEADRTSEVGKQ

[4] = molecular target: T1, Coenzyme A biosynthesis bifunctional protein CoaBC (Mycobacterium tuberculosis (strain ATCC 25618 / H37Rv), UniProt P9WNZ1); test: Biomol Green assay for MtCoaBC inhibitor, OD650 read; type: functional
T1 sequence (P9WNZ1 whole entry): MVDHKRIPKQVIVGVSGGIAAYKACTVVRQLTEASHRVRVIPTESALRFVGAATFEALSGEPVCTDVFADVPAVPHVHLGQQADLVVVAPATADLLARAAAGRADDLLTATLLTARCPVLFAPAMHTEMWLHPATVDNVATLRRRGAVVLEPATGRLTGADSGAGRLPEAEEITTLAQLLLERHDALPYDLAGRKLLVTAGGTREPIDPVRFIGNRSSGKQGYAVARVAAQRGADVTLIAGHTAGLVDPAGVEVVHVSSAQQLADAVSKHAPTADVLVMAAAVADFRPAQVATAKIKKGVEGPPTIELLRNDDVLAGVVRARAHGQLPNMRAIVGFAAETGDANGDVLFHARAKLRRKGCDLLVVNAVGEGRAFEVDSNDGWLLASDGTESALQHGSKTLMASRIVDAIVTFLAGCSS

Chain of Sialic acid-binding Ig-like lectin 9 (Q9Y336 whole entry): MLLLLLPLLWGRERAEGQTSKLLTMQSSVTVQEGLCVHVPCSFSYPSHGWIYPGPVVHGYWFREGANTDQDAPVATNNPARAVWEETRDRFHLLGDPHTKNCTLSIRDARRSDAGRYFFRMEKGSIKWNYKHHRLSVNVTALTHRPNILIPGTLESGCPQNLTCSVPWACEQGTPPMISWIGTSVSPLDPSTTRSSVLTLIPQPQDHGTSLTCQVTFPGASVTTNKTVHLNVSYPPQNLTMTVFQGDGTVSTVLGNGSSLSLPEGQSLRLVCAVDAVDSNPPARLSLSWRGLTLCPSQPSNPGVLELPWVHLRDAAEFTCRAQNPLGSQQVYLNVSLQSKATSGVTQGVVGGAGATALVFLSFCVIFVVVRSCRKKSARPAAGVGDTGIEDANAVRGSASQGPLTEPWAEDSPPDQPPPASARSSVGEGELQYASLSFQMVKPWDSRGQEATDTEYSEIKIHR

| SMILES | IC50 [1] | also measured |
| --- | --- | --- |
| c1cnc(N2CCC3(CCCN(CC4CC4)C3)CC2)nc1 | > 30.2 µM | – |
| CNc1ncc(CN(C)C(=O)c2cccc(-n3cccn3)c2)cn1 | > 30.2 µM | – |
| CCn1ncc2c1C(COC)CN(Cc1nccs1)C2 (centres undefined) | > 30.2 µM | – |
| CSc1nccc(N2C[C@@H](CN3CCCCC3)[C@@H](CO)C2)n1 | > 30.2 µM | – |
| CC(C)n1cnnc1C1CCCN(S(=O)(=O)CCCC#N)C1 (centres undefined) | > 30.2 µM | – |
| CC(=O)NCCCSC1CCN(c2c(F)cccc2F)C1=O (centres undefined) | > 30.2 µM | – |
| COc1ccc(C(C)NCc2cscn2)cc1Cn1cccn1 (centres undefined) | > 30.2 µM | – |
| O=C(NC1CC1)C1CCN(c2nc3nc[nH]c(=O)c3s2)CC1 | > 30.2 µM | – |
| CCOC(=O)CNC(=O)c1cccnc1Oc1ccc(Cl)cc1 | > 30.2 µM | – |
| Cc1cncc(C(=O)N2CCO[C@H]3[C@H](Oc4ccccn4)CC[C@@H]32)c1 | > 30.2 µM | – |
| CCn1ncc2c1C(COC)CN(Cc1ccc(F)cc1)C2 (centres undefined) | > 30.2 µM | – |
| Cc1cc(S(=O)(=O)N(CCO)C2CC2)ccc1F | > 30.2 µM | – |
| Cc1csc(CN2C[C@@H]3COC[C@]3(COCC(=O)N(C)C)C2)n1 | > 30.2 µM | – |
| COC(=O)C(O)C1CCN(Cc2cccc(-n3cccn3)c2)CC1 (centres undefined) | > 30.2 µM | – |
| Cc1ccsc1CN1C[C@@H]2COC[C@]2(COCC(=O)N(C)C)C1 | > 30.2 µM | – |
| CCOC(=O)[C@H]1[C@@H](O)C(=O)N(C)C12CCN(S(=O)(=O)CC)CC2 | > 30.2 µM | – |
| Cc1cc(C(=O)N2CCNC(=O)CC2)c(C)n1CC(F)(F)F | > 30.2 µM | – |
| c1cc2occc2c(N2CCCC(c3nncn3C3CC3)C2)n1 (centres undefined) | > 30.2 µM | – |
| Cc1nc(COC[C@]23COC[C@H]2CN(Cc2ccoc2)C3)cs1 | > 30.2 µM | – |
| Cc1nc(C)c(C(=O)N2CCC(Nc3cccnc3)CC2)s1 | 9.22 µM and 7.13 µM and 9.36 µM and 3.87 µM | – |
| Cc1nc(CC(=O)NCc2csc(N3CCCC3)n2)cs1 | > 30.2 µM | – |
| O=C(CN1CCOC(CNc2cccnn2)C1)NCc1cccs1 (centres undefined) | – | IC50 [2]: > 100 µM; IC50 (Wolbachia pipientis): > 10 µM |
| NC(=O)c1csc(N2C[C@@H](CN3CCC(O)CC3)[C@@H](CO)C2)n1 | > 30.2 µM | – |
| CCOC(=O)[C@@H]1[C@@H](O)C(=O)N(C)C12CCN(C(=O)OC)CC2 | > 30.2 µM | – |
| O=C(C1CCOCC1)N1CCO[C@H]2[C@H](Oc3ccccn3)CC[C@@H]21 | > 30.2 µM | – |
| CS(=O)(=O)N1CCCC1c1cccc(Nc2nccs2)n1 (centres undefined) | – | IC50 [2]: > 100 µM; pIC50 (Wolbachia pipientis): 5.083; IC50 (Wolbachia pipientis): 9.08 µM |

| SMILES | IC50 [1] | also measured |
| --- | --- | --- |
| c1ccc2oc(CCCN3CCCCC3Cn3cncn3)nc2c1 (centres undefined) | – | IC50 [3]: > 100 µM; IC50 [2]: > 100 µM |
| Cc1cc(N2CCCC(c3nncn3C3CC3)C2)ncn1 (centres undefined) | > 30.2 µM | – |
| CCc1cc(N2CCCC(c3noc(CC)n3)C2)ncn1 (centres undefined) | > 30.2 µM | – |
| COC(=O)CC1CCN(C(=O)c2ccccc2-n2nnnc2C)CC1 | > 30.2 µM | – |
| O=C(N1CCCC1)N1CCO[C@H]2[C@@H](Oc3ccccn3)CC[C@@H]21 | > 30.2 µM | – |
| CN(C)CC(=O)N1CCC2(CC1)COc1ccccc1S(=O)(=O)N(C)C2 | > 30.2 µM | – |
| O=C(NCCc1nncn1C1CC1)C1SCCc2ccccc21 (centres undefined) | > 30.2 µM | – |
| CCOC(=O)[C@H]1[C@@H](O)C(=O)N(C)C12CCN(C(=O)CC(C)C)CC2 | > 30.2 µM | – |
| Cc1cc(C(=O)N2CCC(Nc3cccnc3)CC2)c(C)s1 | > 30.2 µM | – |
| CCn1ncc2c1C(COC)CN(Cc1ccco1)C2 (centres undefined) | > 30.2 µM | – |
| FC(F)(F)CCc1ccnc(NCc2csc(N3CCOCC3)n2)n1 | > 30.2 µM | – |
| Cc1oc(C)c(C(=O)Nc2ccccn2)c1C | > 30.2 µM | – |
| CCNC(=O)c1nnn(Cc2ccccc2)c1OC | > 30.2 µM | – |
| CC(=O)NCCCSC1CCN(c2ccccc2Cl)C1=O (centres undefined) | > 30.2 µM | – |
| CCn1c(C)cc(C(=O)N2CCC(NC(=O)c3ccc(C)o3)CC2)c1C | > 30.2 µM | – |
| CC(C)n1cnnc1C1CCCN(S(=O)(=O)CC2CCCC2)C1 (centres undefined) | > 30.2 µM | – |
| Cc1ccnc(NC(=O)c2cc(C)oc2C)c1 | > 30.2 µM | – |
| CCN(C(=O)c1cc(C)oc1C)C1CC1 | > 30.2 µM | – |
| CCn1c(C)cc(C(=O)N2CCC(NC(=O)c3cc(C)no3)CC2)c1C | > 30.2 µM | – |
| c1cnc(N2CCC3(CCN(CC4CCCC4)CC3)C2)nc1 | > 30.2 µM | – |
| CCc1nc(C2CCCN(c3ncccn3)C2)no1 (centres undefined) | > 30.2 µM | – |
| CC(C)n1cnnc1CCNCc1cn(CCC(N)=O)c2ccccc12 | > 30.2 µM | – |
| CN1CCCN(C[C@@H]2CN(c3nc(C(N)=O)cs3)C[C@@H]2CO)CC1 | > 30.2 µM | – |
| O=C1Nc2ccccc2CNC12CCN(CC1CC1)CC2 | > 30.2 µM | – |
| Cc1cnc(Nc2cccc(C3CCCN3Cc3cn(C)nc3C)n2)s1 (centres undefined) | – | IC50 [4]: > 30.2 µM; pIC50 [2]: 5.045 and 4.742; pIC50 (Wolbachia pipientis): 5.174; IC50 (Wolbachia pipientis): 5.37 µM |
| Cc1cc(S(=O)(=O)NCC(C)(C)N)c(F)cc1F | > 30.2 µM | – |
